Data taken from patent US20230218761A1, “METHOD FOR DECOMPOSING COMPOUND AND COMPOUND” (NATIONAL UNIVERSITY CORPORATION HOKKAIDO UNIVERSITY, priority 2020, published 2023).
Values belong to the substance of their own block, whether it stands above or below them.

Tests used:
Format in all cases: physicochemical
[1] = Impact of pH on decomposition of the compound by X-ray irradiation (residual ratio by HPLC); details: X-rays 6 MeV, 20 Gy absorbed, average of three
Description: In a phosphoric acid buffer solution having a pH of 6 or 7, 5 μM of the compound 2 was dissolved. While degassing was performed using Ar, the resulting mixture was irradiated with X-rays (6 MeV) using LINAC such that the amount of X-rays absorbed was 20 Gy. The sample irradiated with X-rays was analyzed using HPLC as in Example 5 to calculate the residual ratios of the compound 2 at the above pH values. The above calculation was conducted three times for each case, and the average was considered as the residual ratio (Post/Pre (%)) of the compound 2.
In Reference Example 2 where the compound 2 was dissolved in a phosphoric acid buffer solution having a pH of 7, the residual ratio (Post/Pre (%)) at which the compound 2 remained after the X-ray irradiation was 50.0%.
This confirms that, the lower the pH, the higher the likelihood of dissociation of the axial ligands.

[2] = Decomposition of compound by X-ray irradiation, residual ratio by HPLC (Examples 5 to 8); details: 0.5 μM compound in 0.1-M phosphoric acid buffer pH 7.0, bubbled with Ar, X-rays 6 MeV, 20 Gy, 4.4 Gy/min
Description: HPLC System: HPLC system (produced by Shimadzu Corporation) equipped with a reverse-phase column Inertsil ODS-3 (10 mm×250 mm) (produced by GL Sciences).
Eluent A: 0.1-M triethylamine acetic acid buffer solution
This buffer solution was used as an X-ray irradiation solution for the compound.
The X-ray irradiation solution for the compound was bubbled with Ar and then irradiated with X-rays at 6 MeV (20 Gy, 4.4 Gy/min) using LINAC (linear accelerator).
The peak area ratio was calculated on the basis of the areas of absorption peaks of the compound and methylene blue. The ratio between the concentrations of methylene blue and the compound was determined using the calibration curve. The concentration of the compound was calculated using the known concentration of the methylene blue. Thus, the residual ratio (Post/Pre (%)) of the compound was determined.
Note that, the smaller the residual ratio (Post/Pre (%)), the higher the degree of progress of the decomposition (selectively decomposition of chemical bonds; dissociation of axial ligands) by X-rays.

[3] = Impact of radical species on decomposition of the compound by X-ray irradiation (residual ratio by HPLC); details: 6 MeV
Description: Sodium formate was added to a 5-μM aqueous solution of the compound 2 as a radical scavenger. While degassing was performed using Ar, the resulting mixture was irradiated with X-rays (6 MeV) using LINAC such that the amount of X-rays absorbed was 2, 3, 4, or 5 Gy. Immediately after the irradiation, the degassing was stopped and the sample irradiated with X-rays was analyzed using HPLC as in Example 5 to calculate the residual ratios of the compound 2 under the above irradiation conditions. Note that, when the amount of X-rays emitted was 5 Gy, the amount of e^−aq (hydrated electrons) produced was 1.6 μM and the amount of CO2^−·(carbon dioxide anion radicals) produced was 1.6 μM. The irradiation and calculation of the residual ratio were conducted three times for each case, and the average was considered as the residual ratio (Post/Pre (%)) of the compound 2.
The residual ratio (Post/Pre (%)) of the compound 2 was calculated as in Reference Example 3, except that the degassing was stopped after the Ar degassing had been maintained 30 minutes subsequent to the X-ray irradiation.
The residual ratio (Post/Pre (%)) of the compound 2 was calculated as in Reference Example 3, except that, instead of sodium formate, sodium formate and nitrous oxide were used as a radical scavenger. Note that, when the amount of X-rays emitted was 5 Gy, the amount of e^−aq (hydrated electrons) produced was 0 μM and the amount of CO2^−·(carbon dioxide anion radicals) produced was 3.1 μM.
The residual ratio (Post/Pre (%)) of the compound 2 was calculated as in Reference Example 5, except that the degassing was stopped after the Ar degassing had been maintained 30 minutes subsequent to the X-ray irradiation.
The residual ratio (Post/Pre (%)) of the compound 2 was calculated as in Reference Example 3, except that the radical scavenger was not used.
The results obtained in Reference Example 3 to 6 confirm that, even in the case where the amount of X-ray (6 MeV) emitted is 10 Gy or less, that is, for example, 2 to 5 Gy, the selective decomposition of the chemical bonds of the compound 2 (dissociation of axial ligands) occurs due to the action of e^−aq (hydrated electrons) and/or CO2^−·(carbon dioxide anion radicals). It was also confirmed that continuing the Ar degassing subsequent to the irradiation enables the selective decomposition of the chemical bonds of the compound 2 to occur.
On the basis of the results obtained in Reference Examples 3 to 6, it is also considered that e^−aq (hydrated electrons) and/or CO2^−·(carbon dioxide anion radicals) contribute to the dissociation of the axial ligands of the compound 2. Since the residual ratio of the compound 2 decreased in the cases where the degassing was maintained, it is also considered that maintaining the degassing causes a radical chain reaction responsible for the dissociation of the axial ligands.

residual ratio (Post/Pre (%)) after X-ray irradiation ([1]; 5 μM in phosphoric acid buffer pH 6, Ar degassing): 18.6%
residual ratio (Post/Pre (%)) after X-ray irradiation ([1]; 5 μM in phosphoric acid buffer pH 7, Ar degassing): 50.0%
Post/pre (%) residual ratio of the compound after X-ray irradiation [2]: 46.8%
residual ratio (Post/Pre (%)) ([3]; Reference example 3: 5 μM aqueous, sodium formate, Ar degassing stopped immediately after irradiation, 2 Gy absorbed): 98.4%
residual ratio (Post/Pre (%)) ([3]; Reference example 3: 5 μM aqueous, sodium formate, Ar degassing stopped immediately after irradiation, 3 Gy absorbed): 93.3%
residual ratio (Post/Pre (%)) ([3]; Reference example 3: 5 μM aqueous, sodium formate, Ar degassing stopped immediately after irradiation, 4 Gy absorbed): 89.5%
residual ratio (Post/Pre (%)) ([3]; Reference example 3: 5 μM aqueous, sodium formate, Ar degassing stopped immediately after irradiation, 5 Gy absorbed): 8.8%
residual ratio (Post/Pre (%)) ([3]; Reference example 4: sodium formate, Ar degassing maintained 30 minutes after irradiation, 2 Gy absorbed): 100%
residual ratio (Post/Pre (%)) ([3]; Reference example 4: sodium formate, Ar degassing maintained 30 minutes after irradiation, 3 Gy absorbed): 49.9%
residual ratio (Post/Pre (%)) ([3]; Reference example 4: sodium formate, Ar degassing maintained 30 minutes after irradiation, 4 Gy absorbed): 0.3%
residual ratio (Post/Pre (%)) ([3]; Reference example 4: sodium formate, Ar degassing maintained 30 minutes after irradiation, 5 Gy absorbed): 0%
residual ratio (Post/Pre (%)) ([3]; Reference example 5: sodium formate and nitrous oxide, degassing stopped immediately after irradiation, 2 Gy absorbed): 96.0%
residual ratio (Post/Pre (%)) ([3]; Reference example 5: sodium formate and nitrous oxide, degassing stopped immediately after irradiation, 3 Gy absorbed): 90.4%
residual ratio (Post/Pre (%)) ([3]; Reference example 5: sodium formate and nitrous oxide, degassing stopped immediately after irradiation, 4 Gy absorbed): 86.2%
residual ratio (Post/Pre (%)) ([3]; Reference example 5: sodium formate and nitrous oxide, degassing stopped immediately after irradiation, 5 Gy absorbed): 8.3%
residual ratio (Post/Pre (%)) ([3]; Reference example 6: sodium formate and nitrous oxide, Ar degassing maintained 30 minutes after irradiation, 2 Gy absorbed): 93.1%
residual ratio (Post/Pre (%)) ([3]; Reference example 6: sodium formate and nitrous oxide, Ar degassing maintained 30 minutes after irradiation, 3 Gy absorbed): 85.4%
residual ratio (Post/Pre (%)) ([3]; Reference example 6: sodium formate and nitrous oxide, Ar degassing maintained 30 minutes after irradiation, 4 Gy absorbed): 36.1%
residual ratio (Post/Pre (%)) ([3]; Reference example 6: sodium formate and nitrous oxide, Ar degassing maintained 30 minutes after irradiation, 5 Gy absorbed): 4.8%
residual ratio (Post/Pre (%)) ([3]; Reference example 7: no radical scavenger, Ar degassing, 2 Gy absorbed): 100%
residual ratio (Post/Pre (%)) ([3]; Reference example 7: no radical scavenger, Ar degassing, 3 Gy absorbed): 99.4%
residual ratio (Post/Pre (%)) ([3]; Reference example 7: no radical scavenger, Ar degassing, 4 Gy absorbed): 99.4%
residual ratio (Post/Pre (%)) ([3]; Reference example 7: no radical scavenger, Ar degassing, 5 Gy absorbed): 100%
Substance: Bis{4-[Tris(3-Sulfopropyl)]Ammoniobutyloxide} Silicon Phthalocyanine [Compound 2]

Post/pre (%) residual ratio of the compound after X-ray irradiation [2]: 52.5%
Substance: Bis{3-[Tris(3-Sulfopropyl)]Ammoniopropyldimethylsilyl Oxide} Silicon Phthalocyanine [Compound 1]

Post/pre (%) residual ratio of the compound after X-ray irradiation [2]: 74.8%
Substance: Bis{4-[Tris(3-Sulfopropyl)]Ammoniomethylphenoxide} Silicon Phthalocyanine [Compound 4]

Substance: Bis({6-[Tris(3-Sulfopropyl)]Ammoniohexanoyl} Oxide) Silicon Phthalocyanine [Compound 3]
Post/pre (%) residual ratio of the compound after X-ray irradiation [2]: 62.1%
